The target of the assay is T1, Human AMPK α2β2γ1 (Homo sapiens, UniProt O43741+P54619+P54646).
T1 construct: The full length cDNAs of human AMPK β2 (NM_005399.3) and human AMPK α2 (NM_006252.3); The full length cDNAs of human AMPK β2 (NM_005399.3); the full length cDNA of human AMPK γ1 (NM_002733.3); 6xHis (N); made in house; host or cells: Escherichia coli BL21 CodonPlus (DE3)-RIL (AMPK); BL21 Star (DE3) (CaMKK2)
Nature of the assay: Test Example 2: AMPK activator evaluation, mobility-shift kinase assay after CaMKK2 phosphorylation. It is filed as biochemical. The following applies: for EC150: compound concentration showing 150% relative to the control (100%); for Emax: maximum rate of increase in activity within the measurement range, control = 100%. As to the method: The full length cDNAs of human AMPK β2 (NM_005399.3) and human AMPK α2 (NM_006252.3) were inserted into the MCS1 and MCS2 of the pETDuet-1 vector to prepare a human AMPK β2 and human AMPK α2 (6× His tag at the 5′ terminus) expressing plasmid. The plasmid was cotransfected with an expression plasmid, in which the full length cDNA of human AMPK γ1 (NM_002733.3) had been inserted into pET28b(+), into BL21 CodonPlus (DE3)-RIL to obtain an expression strain. The expression strain was cultured in TB medium, followed by induction with 0.5 mM IPTG, and cultured at 25° C. for 3 hours and then harvested. After ultrasonication, supernatant was collected and applied to Histrap FF column (GE) and RESOUECE Q column (GE) to prepare 12.5 mg of purified sample containing three types of subunit from 1.8 L of broth.
An expression vector, in which the full length cDNA of human CAMKK β (NM_172226.1) had been inserted into pGEX-6P-3, was transfected into BL21 Star (DE3). The expression strain was cultured in TB medium, followed by induction with 0.5 mM IPTG, and cultured at 25° C. for 3 hours and then harvested. After ultrasonication, supernatant was collected and applied to GSTrap FF column (GE) to prepare 14 mg of GST-fused CAMKK β from 720 ml of broth.
Thus, phosphorylation treatment was carried out as pretreatment.
Human AMPK α2β2γ1 in an amount to give a conversion rate of approximately 10% by reaction for 2 hours, and CaMKK2 in an amount capable of sufficiently imparting activity to AMPK for one hour were mixed in a buffer solution consisting of a 50 mM HEPES-NaOH buffer solution (pH 7.0), 100 mM NaCl, 5 mM magnesium chloride, 0.1% bovine serum albumin, 0.2 mM sodium orthovanadate(V), 1 mM ethylene glycol-bis(2-aminoethyl ether)-N,N,N′,N′-tetraacetic acid (EGTA), 5 mM disodium β-glycerophosphate, 1 mM dithiothreitol and 0.2 mM ATP, and the obtained liquid was left to stand at 25° C. for 1 to 1.5 hours to sufficiently phosphorylate AMPK.
After that, to the enzyme liquid, which had been subjected to phosphorylation treatment, a compound dissolved in DMSO was added so as to have a 1% DMSO concentration. The obtained liquid was left to stand for 10 minutes.
To the liquid, a substrate solution consisting of a 50 mM HEPES-NaOH buffer solution (pH 7.0), 100 mM NaCl, 10 mM magnesium chloride, 0.1% bovine serum albumin, 0.2 mM sodium orthovanadate(V), 1 mM ethylene glycol-bis(2-aminoethyl ether)-N,N,N′,N′-tetraacetic acid (EGTA), 5 mM disodium β-glycerophosphate, 2 mM dithiothreitol, 0.4 mM ATP and 3 μM FL-Peptide 7 (manufactured by Caliper Life Sciences, Inc.) was added in equal amount (10 μl in total). The obtained liquid was allowed to react at 25° C. for 2 hours, and 10 μl of 20 mM EDTA was then added thereto to stop the reaction.
To detect phosphorylated fluorescent substrates, the reaction liquid was applied to a measuring device, LabChip EZ Reader II manufactured by Caliper Life Science, Inc., for detecting fluorescence by using differences in mobility due to differences in charge. The setting conditions for the device were pressure, −1.5 PSI; upstream voltage, −2250 V; downstream voltage, −400 V; post sample buffer sip time, 40 seconds; final delay, 120 seconds; and peak order, Product First.
A conversion rate was calculated from the peak heights of the resulting substrate and product. The conversion rate when not containing a compound was used as a control, and a concentration dependent curve was made by plotting the rate of increase in activity to the control at each concentration of a compound.

T1 sequence (P54646 whole entry): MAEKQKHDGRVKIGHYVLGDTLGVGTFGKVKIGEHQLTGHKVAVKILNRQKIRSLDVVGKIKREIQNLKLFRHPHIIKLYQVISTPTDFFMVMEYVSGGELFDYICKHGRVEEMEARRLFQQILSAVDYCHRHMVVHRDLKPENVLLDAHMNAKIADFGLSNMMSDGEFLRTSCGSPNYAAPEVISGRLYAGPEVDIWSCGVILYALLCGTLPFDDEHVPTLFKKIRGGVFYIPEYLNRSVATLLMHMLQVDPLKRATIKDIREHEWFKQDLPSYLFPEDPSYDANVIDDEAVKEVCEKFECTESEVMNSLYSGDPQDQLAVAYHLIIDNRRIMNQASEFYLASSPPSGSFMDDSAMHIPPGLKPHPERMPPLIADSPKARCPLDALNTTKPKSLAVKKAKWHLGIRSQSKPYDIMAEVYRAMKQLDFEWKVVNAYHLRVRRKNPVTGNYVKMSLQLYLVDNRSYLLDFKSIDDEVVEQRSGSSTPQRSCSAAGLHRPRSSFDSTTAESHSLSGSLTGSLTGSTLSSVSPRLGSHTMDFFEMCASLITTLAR
T1 sequence (O43741 whole entry): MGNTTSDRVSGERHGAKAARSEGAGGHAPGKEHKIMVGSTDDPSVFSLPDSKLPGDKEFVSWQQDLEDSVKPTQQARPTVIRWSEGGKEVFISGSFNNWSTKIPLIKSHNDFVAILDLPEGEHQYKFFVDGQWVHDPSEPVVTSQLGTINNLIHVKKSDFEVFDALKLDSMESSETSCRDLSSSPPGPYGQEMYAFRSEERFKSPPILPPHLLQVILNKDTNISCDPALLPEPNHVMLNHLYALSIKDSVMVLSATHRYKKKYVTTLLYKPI
T1 sequence (P54619 whole entry): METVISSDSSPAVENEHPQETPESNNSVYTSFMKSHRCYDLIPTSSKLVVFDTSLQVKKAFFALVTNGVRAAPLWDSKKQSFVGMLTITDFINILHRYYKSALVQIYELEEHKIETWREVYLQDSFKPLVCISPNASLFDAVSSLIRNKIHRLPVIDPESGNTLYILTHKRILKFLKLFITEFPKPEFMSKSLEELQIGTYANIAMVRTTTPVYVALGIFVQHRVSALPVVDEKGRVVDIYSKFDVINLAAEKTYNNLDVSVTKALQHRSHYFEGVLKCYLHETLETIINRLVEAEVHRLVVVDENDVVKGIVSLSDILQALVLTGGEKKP

As usually defined, the Emax is the maximal effect, on the per cent scale that the assay sets. Take `O=C(c1cc(F)c2c(c1)CCC2Nc1nc2nc(O[C@@H]3CO[C@H]4[C@@H]3OC[C@H]4O)[nH]c2cc1Cl)N1CCCCC1` (some centres unmarked) [Compound I-2-147]: the EC150 turned out to be 4.5 nM and the Emax turned out to be 532%.
In the case of `O[C@@H]1CO[C@H]2[C@@H]1OC[C@H]2Oc1nc2nc(/C=C/c3ccc(F)cc3F)c(Cl)cc2[nH]1` [Compound I-2-244], the EC150 was determined as 92 nM and the Emax worked out at 517%.
On to `O=C1CCCN1CCOc1cc(F)c(CNc2nc3nc(O[C@@H]4CO[C@H]5[C@@H]4OC[C@H]5O)[nH]c3cc2Cl)c(F)c1` [Compound I-2-188], for which the EC150 came to 15 nM and the Emax stood at 603%.
Consider `CN(C)CCCc1cc(F)c(CNc2nc3nc(O[C@@H]4CO[C@H]5[C@@H]4OC[C@H]5O)[nH]c3cc2Cl)c(F)c1` [Compound I-2-222], for which the EC150 turned out to be 16 nM and the Emax worked out at 532%.
With `COCCOc1cc(F)c2c(c1)OCC2Nc1nc2nc(O[C@@H]3CO[C@H]4[C@@H]3OC[C@H]4O)[nH]c2cc1Cl` (some centres unmarked) [Compound I-2-185], the EC150 is 6 nM and the Emax amounted to 569%.
The corresponding values for `Cn1cc(-c2cc(F)c(CNc3nc4nc(O[C@@H]5CO[C@H]6[C@@H]5OC[C@H]6O)[nH]c4cc3Cl)c(F)c2)ccc1=O` [Compound I-2-217] are 47 nM and 637%.
Regarding `O[C@@H]1CO[C@H]2[C@@H]1OC[C@H]2Oc1nc2nc(NCc3c(F)cc(Cl)cc3F)c(Cl)cc2[nH]1` [Compound I-1-14], the EC150 worked out at 42 nM and the Emax was determined as 750%.
Taken in the same sequence, the figures for `Cn1cc(-c2cc(F)c(CNc3nc4nc(O[C@@H]5CO[C@H]6[C@@H]5OC[C@H]6O)[nH]c4cc3Cl)c(F)c2)cn1` [Compound I-1-39] were 26 nM and 506%.
Taken in the same sequence, the figures for `CS(=O)(=O)CCCOc1cc(F)c(CNc2nc3nc(O[C@@H]4CO[C@H]5[C@@H]4OC[C@H]5O)[nH]c3cc2Cl)c(F)c1` [Compound I-2-91] were 5.4 nM and 532%.
Taken in the same sequence, the figures for `Oc1cccc(F)c1CNc1nc2nc(O[C@@H]3CO[C@H]4[C@@H]3OC[C@H]4O)[nH]c2cc1Cl` [Compound I-2-1] were 30 nM and 588%.
As to `OCCO[C@@H]1CO[C@H]2[C@@H]1OC[C@H]2Oc1nc2nc(NCc3c(F)cccc3F)c(Cl)cc2[nH]1` [Compound I-1-119], the EC150 came out at 84 nM and the Emax worked out at 432%.
Regarding `O[C@@H]1CO[C@H]2[C@@H]1OC[C@H]2Oc1nc2nc(NCc3c(F)cc(-c4cnn(CCN5CCOCC5)c4)cc3F)c(Cl)cc2[nH]1` [Compound I-2-228], the EC150 is reported as 8.5 nM and the Emax stood at 528%.
`O[C@@H]1CO[C@H]2[C@@H]1OC[C@H]2Oc1nc2nc(NCc3c(F)cccc3F)c(Cl)cc2[nH]1` [Compound I-1-1]: the EC150 was found to be 29 nM and the Emax came to 484%.
The corresponding values for `CS(=O)(=O)NCCOc1cc(F)c(CNc2nc3nc(O[C@@H]4CO[C@H]5[C@@H]4OC[C@H]5O)[nH]c3cc2Cl)c(F)c1` [Compound I-2-93] are 9.9 nM and 602%.
Taken in the same sequence, the figures for `CN1CCC(Oc2cc(F)c(CNc3nc4nc(O[C@@H]5CO[C@H]6[C@@H]5OC[C@H]6O)[nH]c4cc3Cl)c(F)c2)CC1` [Compound I-2-192] were 7.6 nM and 568%.
The corresponding values for `O[C@@H]1CO[C@H]2[C@@H]1OC[C@H]2Oc1nc2nc(NC3COc4ccccc43)c(Cl)cc2[nH]1` (some centres unmarked) [Compound I-1-11] are 170 nM and 512%.
For the molecule `OCCn1ccc(CNc2nc3nc(O[C@@H]4CO[C@H]5[C@@H]4OC[C@H]5O)[nH]c3cc2Cl)n1` [Compound I-2-62], the EC150 is recorded as 94 nM and the Emax was 388%.
The corresponding values for `COC/C=C/c1cc(F)c2c(c1)CCC2Nc1nc2nc(O[C@@H]3CO[C@H]4[C@@H]3OC[C@H]4O)[nH]c2cc1Cl` (some centres unmarked) [Compound I-2-238] are 4.1 nM and 553%.
The corresponding values for `O[C@@H]1CO[C@H]2[C@@H]1OC[C@H]2Oc1nc2nc(NCc3c(F)cc(OCC4CNCCO4)cc3F)c(Cl)cc2[nH]1` (some centres unmarked) [Compound I-2-119] are 13 nM and 581%.
For the molecule `O[C@@H]1CO[C@H]2[C@@H]1OC[C@H]2Oc1nc2nc(NCc3ccccc3F)c(Cl)cc2[nH]1` [Compound I-1-109], the EC150 was found to be 48 nM and the Emax came out at 499%.
On to `O[C@@H]1CO[C@H]2[C@@H]1OC[C@H]2Oc1nc2nc(NC3CCc4cccnc43)c(Cl)cc2[nH]1` (some centres unmarked) [Compound I-1-116], for which the EC150 was 94 nM and the Emax stood at 450%.
The corresponding values for `OC[C@@H]1C[C@H](Oc2nc3nc(NCc4c(F)cccc4F)c(Cl)cc3[nH]2)CO1` [Compound I-2-19] are 74 nM and 506%.
Taken in the same sequence, the figures for `O[C@@H]1CO[C@H]2[C@@H]1OC[C@H]2Oc1nc2nc(NCc3c(F)cccc3F)c(F)cc2[nH]1` [Compound I-1-10] were 740 nM and 406%.
The corresponding values for `COCCOc1cc(F)c(CSc2nc3nc(O[C@@H]4CO[C@H]5[C@@H]4OC[C@H]5O)[nH]c3cc2Cl)c(F)c1` [Compound I-1-4] are 40 nM and 766%.
With `OCCCOc1cc(F)c(CNc2nc3nc(O[C@@H]4CO[C@H]5[C@@H]4OC[C@H]5O)[nH]c3cc2Cl)c(F)c1` [Compound I-1-36], the EC150 came out at 16 nM and the Emax is 475%.
Taken in the same sequence, the figures for `CC(=O)NC(C)(C)c1ccc(Oc2nc3nc(NCc4c(F)cccc4F)c(Cl)cc3[nH]2)cn1` [Compound I-1-126] were 170 nM and 332%.
Consider `O[C@@H]1CO[C@H]2[C@@H]1OC[C@H]2Oc1nc2nc(NCc3cccs3)c(Cl)cc2[nH]1` [Compound I-1-52], for which the EC150 is recorded as 100 nM and the Emax is 407%.
In the case of `COCCOc1cc(F)c2c(c1)CCC2Nc1nc2nc(O[C@@H]3CO[C@H]4[C@@H]3OC[C@H]4O)[nH]c2cc1Cl` (some centres unmarked) [Compound I-1-38], the EC150 is 1.2 nM and the Emax was determined as 568%.
Taken in the same sequence, the figures for `O[C@@H]1CO[C@H]2[C@@H]1OC[C@H]2Oc1nc2nc(NCc3c(F)cccc3F)c(C(F)(F)F)cc2[nH]1` [Compound I-2-22] were 130 nM and 480%.
As to `O=C(c1cc(F)c2c(c1)CCC2Nc1nc2nc(O[C@@H]3CO[C@H]4[C@@H]3OC[C@H]4O)[nH]c2cc1Cl)N1CC[C@H](F)C1` (some centres unmarked) [Compound I-2-153], the EC150 worked out at 5.2 nM and the Emax came out at 546%.
Taken in the same sequence, the figures for `Cn1cc(-c2cc(F)c3c(c2)CCC3Nc2nc3nc(O[C@@H]4CO[C@H]5[C@@H]4OC[C@H]5O)[nH]c3cc2Cl)cn1` (some centres unmarked) [Compound I-2-239] were 5.6 nM and 535%.

Source of the values: patent US10123994B2, “Heterocyclic derivative having AMPK-activating activity” (SHIONOGI & CO., LTD., priority 2014, dated 2018).
